The values that follow come from patent US8685916B2, “Opioid prodrugs with heterocyclic linkers” (Signature Therapeutics, Inc., priority 2011, dated 2014).

One may read the half-life as the time needed for the level to fall by half in the phase considered.

Read-outs that look alike come from different tables or passages of the source.

In series [1] the target is T1, trypsin (Bos taurus, UniProt P00760).
T1 construct: purchased Sigma-Aldrich T8003; host or cells: bovine pancreas (tissue-derived preparation)
T1 sequence (P00760 24-246): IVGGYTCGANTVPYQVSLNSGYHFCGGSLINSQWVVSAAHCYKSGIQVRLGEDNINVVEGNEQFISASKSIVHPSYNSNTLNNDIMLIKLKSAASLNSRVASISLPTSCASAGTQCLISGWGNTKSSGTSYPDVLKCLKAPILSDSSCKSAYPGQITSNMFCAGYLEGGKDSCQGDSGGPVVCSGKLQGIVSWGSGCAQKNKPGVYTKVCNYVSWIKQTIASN
The series is described as follows: In vitro trypsin-mediated cleavage of oxycodone prodrugs. In kind it is biochemical, bovine. Conditions: bovine, trypsin from bovine pancreas; 0.761 mM prodrug, Tris pH 8, 37° C.; adjusted to 4815 BAEE U trypsin/mL. On the procedure:
(§1) The reactions were conducted at 37° C. for 24 h.
(§2) Table 4 indicates the results of exposure of the tested prodrugs to trypsin. […] Table 4 also indicates the cyclization rate of the cyclizable spacer leaving group of Compound KC-9, Compound KC-11, and Compound KC-18. The results are expressed as half-life of compound disappearance. For Compound KC-11, a diastereomer, two peaks (A and B) were analyzed.

Series [2] has as its target T2, trypsin from bovine pancreas (Bos taurus, UniProt P00760).
T2 construct: purchased Sigma-Aldrich T8003; host or cells: bovine pancreas (tissue-derived preparation)
T2 sequence (P00760 24-246): T1 sequence (P00760 24-246)
The description is as above. Particulars: 0.761 mM prodrug, Tris pH 8, 37° C. In kind it is biochemical. On the procedure: as §1, §2

Series [3] is described as follows: Pharmacokinetics of oxycodone prodrugs following PO administration to dogs. Conditions: oxycodone in dog plasma, 5.7-[…] (prodrugs 4.15-[…]; oxycodone 2 mg/kg; OxyContin 20 mg tablet).
The target in series [4] is T1, trypsin. Description: In vitro trypsin-mediated cleavage of hydrocodone prodrugs. In kind it is biochemical, bovine. Conditions: bovine, trypsin from bovine pancreas, pH 8; adjusted to 4815 BAEE U trypsin/mL; read-out: Prodrug trypsin half-life (converted). On the procedure:
as §1
(§3) Table 9 indicates the results of exposure of the tested prodrugs to trypsin.

Series [5] addresses T2, trypsin from bovine pancreas. The series is described as above. In kind it is biochemical. On the procedure: as §1, §3
In series [6] the target is T1, trypsin. Description: In vitro trypsin conversion of Compound TP-5 to tapentadol and inhibition by Compound 109. The class given is biochemical, bovine. Particulars: bovine, trypsin from bovine pancreas, read-out: Pro-drug trypsin half-life, Average ± sd (converted). The procedure:
(§4) Other reaction, incubation, sample treatment and analysis procedures were similar to those described in Example 39.

Series [7] addresses T2, trypsin from bovine pancreas. The series is described as above. In kind it is biochemical. The procedure: as §4
Series [8] can be described thus: Pharmacokinetics following PO administration of ketone-modified oxycodone prodrugs to rats.
[9] abbreviates: oxycodone in rat plasma, 28-34 μmol/kg (prodrugs 16-24 mg/kg; oxycodone 10 mg/kg).

As to `COc1ccc2c3c1O[C@H]1C(OC(=O)N4CCCC4CNC(=O)[C@H](CCCNC(=N)N)NC(=O)CC(=O)O)=CC[C@@]4(O)[C@@H](C2)N(C)CC[C@]314` (stereo partly drawn) [Compound KC-10, N-(oxycodone-6-enol-carbonyl)pyrrolidine-2-methylamine-L-arginine-malonate], at trypsin [1], the half-life at 0.761 mM is 9.01 ± 0.306 min. The OC formation rate in series [2] turned out to be 0.00274 ± 0.00027 μmol/h/BAEE U.

For the molecule `COc1ccc2c3c1O[C@H]1C(OC(=O)N4CCCCC4CNC(=O)[C@H](CCCNC(=N)N)NC(=O)CNC(C)=O)=CC[C@@]4(O)[C@@H](C2)N(C)CC[C@]314` (stereo partly drawn) [Compound KC-14, N-(oxycodone-6-enol-carbonyl)piperidine-2-methylamine-L-arginine-glycine-acetate], the half-life at 0.761 mM on trypsin [1] was 0.5143 ± 0.00198 min. Also, the OC formation rate in series [2] was 5.48 ± 0.1 μmol/h/BAEE U.

In the case of `COc1ccc2c3c1O[C@H]1C(OC(=O)N4CCCCC4CNC(=O)[C@H](CCCNC(=N)N)NC(=O)CNC(=O)CC(=O)O)=CC[C@@]4(O)[C@@H](C2)N(C)CC[C@]314` (stereo partly drawn) [Compound KC-16, N-(oxycodone-6-enol-carbonyl)piperidine-2-methylamine-L-arginine-glycine-malonate], the half-life at 0.761 mM at trypsin [1] was 2.37 ± 0.162 min. Besides, the OC formation rate in series [2] is given as 1.46 ± 0.093 μmol/h/BAEE U.

`COc1ccc2c3c1O[C@H]1C(OC(=O)N(C)CCNC(=O)[C@H](CCCNC(=N)N)NC(=O)CC(=O)O)=CC[C@@]4(O)[C@@H](C2)N(C)CC[C@]314` [Compound KC-3, N-1-[2-(oxycodone-6-enol-carbonyl-methyl-amino)-ethylamine]-L-arginine-malonate]: in series [3], the “AUC ± sd” value was 65.6 ± 22 ng·h/mL and the “OC Cmax ± sd” value came to 10.2 ± 3.3 ng/mL.

For `COc1ccc2c3c1O[C@H]1C(OC(=O)N4CCCC[C@@H]4CNC(=O)[C@H](CCCNC(=N)N)NC(=O)CNC(C)=O)=CC[C@H]4[C@@H](C2)N(C)CC[C@]314` [Compound KC-36, N-(hydrocodone-6-enol-carbonyl)-R-(piperidine-2-methylamine)-L-arginine-glycine-acetate], the half-life at 0.761 mM on trypsin [4] is 1.08 min. For the same molecule, the HC formation rate in series [5] worked out at 0.004 ± 0.00 μmol/h/BAEE U.

For `COc1ccc2c3c1O[C@H]1C(OC(=O)N4CCCCC4CNC(=O)[C@H](CCCNC(=N)N)NC(=O)CC(=O)O)=CC[C@@]4(O)[C@@H](C2)N(C)CC[C@]314` (stereo partly drawn) [Compound KC-12, N-(oxycodone-6-enol-carbonyl)piperidine-2-methylamine-L-arginine-malonate], the half-life at 0.761 mM on trypsin [1] was 9.498 ± 0.0114 min. The OC formation rate in series [2] came out at 0.231 ± 0.0097 μmol/h/BAEE U.

Consider `CC[C@@H](c1cccc(OC(=O)N2CCCCC2CNC(=O)[C@@H](CCCNC(=N)N)NC(=O)CC(=O)O)c1)[C@@H](C)CN(C)C` (stereo partly drawn) [Compound TP-5, N-(Tapentadol-carbonyl)piperidine-2-methylamine-L-arginine-malonate], for which the half-life was 62.4 ± 0.0366 min at trypsin [6] (with Compound 109 (trypsin inhibitor), 8 µM) and 3.99 ± 0.00024 min on trypsin [6]. In addition, the entries for the “Rate of TP formation, Average ± sd” value in series [7] (Compound 109 0 μM) and in series [7] (Compound 109 8 μM) were 0.684 ± 0.036 μmol/h/BAEE U and 0.1043 ± 0.0049 μmol/h/BAEE U, respectively.

Take `COc1ccc2c3c1O[C@H]1C(OC(=O)N4CCCCC4CN)=CC[C@@]4(O)[C@@H](C2)N(C)CC[C@]314` (stereo partly shown) [Compound KC-11, N-(oxycodone-6-enol-carbonyl)piperidine-2-methylamine]: the “AUC ± sd” value in series [8] (oxycodone in rat plasma, 0 to 24 h, 28-34 μmol/kg (prodrugs 16-24 mg/kg; oxycodone 10 mg/kg)) was 57.0 ± 9.0 ng·h/mL. In addition, in series [8] (setting [9]), the “OC Cmax ± sd” value was found to be 13.6 ± 3.0 ng/mL and the “Tmax ± sd” value is reported as 1.00 ± 0.0 h. In addition, the “release of oxycodone compared with Compound KC-9” value in series [8] (rats) is on record as “significantly more oxycodone than does Compound KC-9”.

Consider `COc1ccc2c3c1O[C@H]1C(OC(=O)N4CC(C(=O)O)CCC4CNC(=O)[C@H](CCCNC(=N)N)NC(=O)CNC(C)=O)=CC[C@H]4[C@@H](C2)N(C)CC[C@]314` (mixture of isomers) [Compound KC-32, N-(hydrocodone-6-enol-carbonyl)-[(2-methylamino)piperidine-3-carboxylate]-L-arginine-glycine-acetate], for which the half-life at 0.761 mM at trypsin [4] was 9 min.

Regarding `COc1ccc2c3c1O[C@H]1C(OC(=O)N4CCCCC4CNC(=O)[C@H](CCCNC(=N)N)NC(=O)[C@H](C)NC(=O)CC(=O)O)=CC[C@@]4(O)[C@@H](C2)N(C)CC[C@]314` (stereo partly drawn) [Compound KC-15, N-(oxycodone-6-enol-carbonyl)piperidine-2-methylamine-L-arginine-L-alanine-malonate], the half-life at 0.761 mM at trypsin [1] is 0.173 ± 0.0114 min. In series [2], the OC formation rate is on record as 22.3 ± 0.8 μmol/h/BAEE U.

For `COc1ccc2c3c1O[C@H]1C(OC(=O)N4CCCC[C@@H]4CNC(=O)[C@H](CCCNC(=N)N)NC(=O)CNC(=O)CC(=O)O)=CC[C@H]4[C@@H](C2)N(C)CC[C@]314` [Compound KC-31, N-(hydrocodone-6-enol-carbonyl)-R-(piperidine-2-methylamine)-L-arginine-glycine-malonate], on trypsin [4], the half-life at 0.761 mM is 3.9 min.

For the molecule `COc1ccc2c3c1O[C@H]1C(OC(=O)N4CCCC[C@@H]4CNC(=O)[C@H](CCCNC(=N)N)NC(C)=O)=CC[C@H]4[C@@H](C2)N(C)CC[C@]314` [Compound KC-38, N-(hydrocodone-6-enol-carbonyl)-R-(piperidine-2-methylamine)-L-arginine-acetate], the half-life at 0.761 mM on trypsin [4] is 7.2 ± 0.6 min. For the same molecule, in series [5], the HC formation rate was determined as 0.001 ± 0.00 μmol/h/BAEE U.

With `COc1ccc2c3c1O[C@H]1C(OC(=O)N4CCCC[C@@H]4CNC(=O)[C@H](CCCNC(=N)N)NC(=O)[C@H](C)NC(C)=O)=CC[C@H]4[C@@H](C2)N(C)CC[C@]314` [Compound KC-37, N-(hydrocodone-6-enol-carbonyl)-R-(piperidine-2-methylamine)-L-arginine -L-alanine-acetate], the HC formation rate in series [5] is 0.004 ± 0.00 μmol/h/BAEE U.

On to `COc1ccc2c3c1O[C@H]1C(OC(=O)N4CCCC[C@@H]4CNC(=O)[C@H](CCCNC(=N)N)NC(=O)[C@H](C)NC(=O)CC(=O)O)=CC[C@H]4[C@@H](C2)N(C)CC[C@]314` [Compound KC-35, N-(hydrocodone-6-enol-carbonyl)-R-(piperidine-2-methylamine)-L-arginine-L-alanine-malonate], for which the half-life at 0.761 mM on trypsin [4] was 0.48 min.

Turning to `COc1ccc2c3c1O[C@H]1C(OC(=O)N4CCCC[C@@H]4CNC(=O)[C@H](CCCNC(=N)N)NC(=O)CC(=O)O)=CC[C@H]4[C@@H](C2)N(C)CC[C@]314` [Compound KC-39, N-(hydrocodone-6-enol-carbonyl)-R-(piperidine-2-methylamine)-L-arginine-malonate], the half-life at 0.761 mM on trypsin [4] was 23.9 min. Moreover, the HC formation rate in series [5] stood at 0.00 ± 0.00 μmol/h/BAEE U.

Consider `COc1ccc2c3c1O[C@H]1C(OC(=O)N4CCCCC4CNC(=O)[C@H](CCCNC(=N)N)NC(=O)[C@H](C)NC(C)=O)=CC[C@@]4(O)[C@@H](C2)N(C)CC[C@]314` (stereo partly drawn) [Compound KC-13, N-(oxycodone-6-enol-carbonyl)piperidine-2-methylamine-L-arginine-L-alanine-acetate], for which, at trypsin [1], the half-life at 0.761 mM was 0.0458 ± 0.00051 min. For the same molecule, the OC formation rate in series [2] amounted to 47.1 ± 5.72 μmol/h/BAEE U.

For `COc1ccc2c3c1O[C@H]1C(OC(=O)N4CCCC[C@@H]4CNC(=O)[C@H](CCCNC(=N)N)NC(=O)CNC(=O)CC(=O)O)=CC[C@@]4(O)[C@@H](C2)N(C)CC[C@]314` [Compound KC-17, N-(oxycodone-6-enol-carbonyl)-R-(piperidine-2-methylamine)-L-arginine-glycine-malonate], the half-life at 0.761 mM at trypsin [1] is 2.65 ± 0.117 min. Also, in series [2], the OC formation rate was determined as 1.23 ± 0.011 μmol/h/BAEE U.
